One series relates to acutely restrained mice. The series can be described thus: Pentobarbital sodium sleep test in mice under acute restraint stress. The settings on record: male C57BL/6J mice; gavage of 0.1, 0.5, 2.5 mg/mL solutions at 0.1 mL/10 g; 30 minutes later acute restraint for 3 hours; pentobarbital sodium 40 mg/kg i.p.; dose-dependent; FIG. 2. The series is classed as in vivo, mouse. From the text: Mouse: Male C57BL/6J; 8 weeks old; Weight: 20-25 g; Quantity: 31 pieces
Group 1, acute restraint sleeping placebo group, 7 mice, fed with regular care.
Group 2, acute restraint sleeping+low-dose of compound NRB181 group, 8 mice. The mice were fasted and deprived of water during the acute restraint period, and were kept normally at other times.
Group 3, acute restraint sleeping+moderate-dose of compound NRB181 group, 8 mice. The mice were fasted and deprived of water during the acute restraint period, and were kept normally at other times.
Group 4, acute restraint sleeping+high-dose of compound NRB181 group, 8 mice. The mice were fasted and deprived of water during the acute restraint period, and were kept normally at other times.
19.3.1 Preparation of placebo one day before the experiment: 0.5% CMC sodium+1% Tween80+saline.
On the day before the experiment, a high-dose solution of compound NRB181 was prepared: 6 mg of NRB181 was weighed and dissolved in 2.4 mL of placebo to prepare a 2.5 mg/mL solution of NRB181. Sonicated for 10 minutes and stored at 4° C. for later use.
The day before the experiment, a moderate-dose solution of compound NRB181 was prepared: […] of the above high-dose solution was taken and added to a 2 mL placebo centrifuge tube, mixed well, a 0.5 mg/mL NRB181 solution was prepared, sonicated for 10 minutes, and stored at 4° C. for later use. […]

For series [1], the system named is metabolic enzymes of pentobarbital sodium. The series can be described thus: LC-MS detection of pentobarbital sodium content in anesthetized mice (pilot experiment). Format: in vivo, mouse. The settings on record: pentobarbital sodium content in mice by LC-MS, placebo vs compound. From the text:
In addition, to determine whether compound NRB181 has an effect on the metabolic enzymes of pentobarbital sodium, we used LC-MS method to detect the pentobarbital sodium content in mice anesthetized with pentobarbital sodium under placebo and compound action in the pilot experiment.

For series [2], the system named is LPS induced mouse depression model. Nature of the series: LPS induced mouse depression model, body weight. The series is classed as in vivo. The settings on record: male CD1 (ICR) mice; gavage 2.5 mg/mL at 0.1 mL/10 g twice daily Day 1-4; LPS i.p. Day 4; weighed Day 5; FIG. 4. From the text: (§1) Mice: Male Crl: CD1 (ICR) mice; 10-14 weeks old; Weight: 35-40 g; Quantity: 40 pieces
(§2) Group 1, placebo+saline group: 10 mice; divided into 2 cages, 5 mice per cage.
(§3) Group 2, placebo+lipopolysaccharide (LPS) group: 10 mice; divided into 2 cages, 5 mice per cage.
(§4) Group 3, compound NRB181+saline group: 10 mice; divided into 2 cages, 5 mice per cage.
(§5) Group 4, compound NRB181+lipopolysaccharide (LPS) group: 10 mice; divided into 2 cages, 5 mice per cage.
(§6) 21.3.1 Preparation of placebo before experiment: 0.5% CMC sodium+1% Tween80+saline. In a clean bench, 4 tubes of 40 mL placebo were prepared using pyrogen-free centrifuge tubes and ultrapure water, totaling 160 mL, ensuring the absence of endotoxins (LPS). Sterile and endotoxin free centrifuge tubes were used to divide […] of placebo into 4 mL/tube, for a total of 30 tubes, and stored at 4° C. for future use.
LPS with a purity of >98% was required 3.2 mg of LPS was accurately weighed and dissolved in 40 mL of placebo to prepare a sterile solution of 0.08 mg/mL. […]
21.3.4 On the first day of the experiment at 8:00 am, four groups of mice were randomly divided into groups, and the weight of each mouse was recorded before being placed back in their respective cages. […]
21.3.14 On the Day 5 of the experiment at 9:00 am, each group of mice was weighed and recorded, and then were returned to their home cages.

Series [3] shares this test system. The series can be described thus: LPS induced mouse depression model, Forced Swim Test. Format: in vivo. The settings on record: gavage 2.5 mg/mL at 0.1 mL/10 g twice daily Day 1-4, test 24 hours after injection, FIG. 5.
From the text: as §1, §2, §3, §4, §5, §6
LPS with a purity of >98% was required 3.2 mg of LPS was accurately weighed and dissolved in 40 mL of placebo to prepare a sterile solution of 0.08 mg/mL. After thorough mixing, the solution was divided into sterile and endotoxin-free centrifuge tubes, 4 mL per tube. […]
21.3.15 On the Day 5 of experiment, 24 hours after mice of Group 1 were injected with saline the day before, a Forced Swim Test was conducted on each group of mice starting from Group 1, and the immobility time of each mouse was recorded.

For `C[C@H](NC(=O)CNC(=O)c1cc(Cl)ccn1)c1c(F)cccc1F` [NRB181], the “sleep time of pentobarbital sodium anesthetized mice” value in the series with acutely restrained mice is recorded as “significantly increased”. Besides, the “effect on the metabolic enzymes of pentobarbital sodium” value in series [1] is listed as “no effect”. Besides, the “weight loss (body weight changes)” value in series [2] is on record as “significantly alleviate weight loss”. In series [3], the “despair time (immobility time) in the Forced Swim Test” value is listed as “significantly reduce the despair time”.

For the origin of these results see patent US20260166016A1, “GPR139 RECEPTOR AGONIST, PREPARATION METHOD THEREFOR, AND APPLICATION THEREOF” (NEUBO APPTECH CO., LTD., priority 2022, published 2026).
